Assay results: patent US20260355318A1, “MOLECULAR MACHINES FOR TREATMENT OF CANCER, FUNGAL INFECTIONS, OR BACTERIAL INFECTIONS” (priority 2022, published 2026)

What was measured:
A. baumannii = assay: MIC, A. baumannii; type: cell-based, Acinetobacter baumannii; conditions: for MIC of MM: A. baumannii, 405 nm light; for MIC: Acinetobacter baumannii, read-out: MIC of MM
Procedure, shortened: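 Cell suspensions were exposed to compound at 0.3125-40 μM for 30 min in the dark, with agitation, at 30 or 37 °C depending on strain. Each sample was then irradiated with 405 nm light at 146 mW cm^−2 for 5 min (43.8 J cm^−2), inoculated into MHB and incubated overnight. MIC was read as the lowest concentration without visible growth, alongside non-irradiated controls.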

[1] = tested on: Gram-negative and Gram-positive strains; assay: MIC comparison Gram-positive versus Gram-negative strains (incl. MRSA); type: cell-based; conditions: FIG. 33C
Source text: The dotted line denotes the limit of detection of the method. Results are the means of at least 3 biological replicas #standard error of the mean. (FIG. 33B) MIC value of MM 1, MM 5, MM 6 in different Gram-negative and Gram-positive strains, including MRSA. Bars represent the results from at least 3 biological replicas. Unless otherwise noted, results for MM and DMSO are always reported in the presence of light. (FIG. 33C) Box and whiskers plot (median values with min/max range) of the MIC values of MM 1, MM 5, and MM 6 among the Gram-negative and Gram-positive strains examined in this study. * P<0.05; ns, not significant.
The appropriate volume of an MM stock at 8 mM necessary to achieve a concentration ranging from 0.3125 to 40 μM was pipetted into a 2 mL microcentrifuge tube to which 1 mL of cell suspension prepared as previously described was added. Corresponding negative controls (DMSO only) were prepared in the same way. […] Afterward, MM- or DMSO-treated cells were dispensed in one well of a 24-well plate positioned in the center of the light beam (405 nm LED Light, Prizmatix, UHP—F-5-405) placed at the appropriate distance necessary to achieve the desired light intensity of 304 mW cm-2, 146 mW cm2 or 87 mW cm2, as measured with a handheld digital power meter console coupled to an S415C thermal power sensor head (Thorlabs, Newton, MA, USA). […]

E. coli [2] = assay: Time-kill / light-dose experiments, E. coli; type: cell-based, Escherichia coli; conditions: E. coli; for light dose for complete eradication: highest concentration of MM (5 μM), 405 nm
Protocol: (§1) Serial dilutions of irradiated cell suspensions were prepared in PBS. A volume of 10 AL of the appropriate serial dilutions was spot-plated onto LB agar plates. Following overnight incubation at 30 or 37 ° C, depending on the strain, bacterial viability was assessed as colony forming units (CFU) per mL. Results were expressed as log (N/NO) whereby N is the CFU mL^−1 at each irradiation time point and NO is the initial CFU mL^−1 of the corresponding sample. Only dilutions that yielded 10-100 colonies were counted.

P. aeruginosa = assay: Time-kill / light-dose experiments, P. aeruginosa; type: cell-based, Pseudomonas aeruginosa; conditions: for light dose for complete eradication: 0.625 to 5 μM of MM, 405 nm; for time to reduce cell number to limit of detection: 2×MIC, 146 mW cm^−2 405 nm
Protocol: as §1

S. aureus = assay: Time-kill / light-dose experiments, S. aureus; type: cell-based, Staphylococcus aureus; conditions: 0.625 to 5 μM of MM, 405 nm
Protocol: as §1

[3] = tested on: persister cells of E. coli; assay: Persister eradication, E. coli; type: cell-based, Escherichia coli; conditions: 1×MIC, 405 nm
Protocol: Persister cells of E. coli were prepared by adding ampicillin (100 μg mL^−1) to exponential-phase cells (OD600 of ≈0.8) followed by continuous agitation for another 3 b, as previously described (Keren et al., 2004). In the case of S. aureus, almost all stationary-phase are considered to be persistent (Keren et al., 2004). S. aureus cells were grown at 37 ° C and 220 rpm in LB broth to an OD600 of 0.3. Cells were then diluted 1:1000 in 25 mL LB and grown for 16 h at 37 ° C and 220 rpm in 250 mL flasks. […] At specified time points (0, 1, 2, 3, 4 and 5, 10 and 15 min), 50-μL aliquots were removed, serially diluted and spot-plated onto LB agar plates to determine colony-forming units per mL (CFU mL^−1). Only dilutions that yielded 10-100 colonies were counted. Results were expressed as log (N/NO) whereby N is the CFU mL^−1 at each irradiation time point and NO is the initial CFU mL^−1 of the corresponding sample. […].

E. coli [4] = assay: Tetracycline uptake; type: cell-based, Escherichia coli; conditions: 0.5×MIC MM pre-treatment, vs DMSO
Protocol: The ability of pre-treatment with subinhibitory concentrations of MMs to potentiate antibiotic killing was further evaluated by monitoring the fluorescence of tetracycline uptake. […] Irradiated cell suspensions were then collected, and tetracycline (128 μg mL^−1 final concentration) was added. A volume of 100 μL per well of tetracycline amended cell suspension was transferred to a black 96-well plate and fluorescence was read every 5 min for 60 min at room temperature in a microplate reader (Ex: 405 nm, Em: 535 nm) (BioTek Instruments Inc, Winooski, VT, USA). Results were expressed as RFU corrected for fluorescence in the absence of cells.

[5] = tested on: normal human dermal fibroblasts (NHDFs); assay: Toxicity to NHDF (CellTiter-Glo); type: cell-based; conditions: 5 min, 405 nm light 146 mW cm^−2, 5 min, read-out: IC50 (NHDF viability)
Protocol: Biocompatibility of MM with primary NHDF and HEK293T cells was assessed using the CellTiter-Glo® Luminescent Cell Viability Assay (Promega), per the manufacturer's instructions. The MM concentrations that reduced cell viability by 50% (IC50) were identified and the therapeutic index was calculated as the ratio between the IC50 and the MIC at a light intensity of 146 mW cm^−2.

Row | Structure (SMILES) | MIC of MM (A. baumannii) [µM] | MIC (A. baumannii) [µM] | median MIC in Gram-positive versus Gram-negative bacteria [1] | time to reduce cell number to limit of detection (E. coli [2]; 2×MIC, 146 mW cm^−2 405 nm) [min] | light dose for complete eradication (E. coli [2]) | light dose for complete eradication (P. aeruginosa) [J cm^−2] | time to reduce cell number to limit of detection (P. aeruginosa) [min] | light dose for complete eradication (S. aureus) [J cm^−2] | time to reduce persister cells to limit of detection [3] [min] | intracellular tetracycline fluorescence (E. coli [4]) | IC50 [5] [µM]
1 | C[C@@H]1Cc2ccc3ccccc3c2/C1=C1\c2ccccc2Sc2cc(NCCN)ccc21 (racemic) [MM 6, N^1-(9-(2-methyl-2,3-dihydro-1H-cyclopenta[a]naphthalen-1-ylidene)-9H-thioxanthen-3-yl)ethane-1,2-diamine] | 2.5 | 2.5 | significant differences in the MIC between the two bacterial groups were not observed | 4 | at least 40 J cm^−2 | 16 | 10 | 16 | 5 | substantial increase in intracellular tetracycline fluorescence | 10
2 | C[C@@H]1Cc2ccc3ccccc3c2/C1=C1\c2ccccc2Sc2cc(NCCN(C)C)ccc21 [MM 1, N^1N^1-dimethyl-N^2-(9-(2-methyl-2,3-dihydro-1H-cyclopenta[a]naphthalen-1-ylidene)-9H-thioxanthen-3-yl) ethane-1,2-diamine] | 2.5 | 2.5 | significant differences in the MIC between the two bacterial groups were not observed | – | at least 40 J cm^−2 | 16 | 3 | 16 | 10 | substantial increase in intracellular tetracycline fluorescence | 5
